US8715678B2, “Method for inhibiting the formation of SET1 family core complexes” (Syracuse University, priority 2008, dated 2014)
Ends that are not written are not given here.

What was measured:
[1] = test system: mouse embryonic carcinoma cell nuclei; assay: Fluorescence localization and nuclear phenotype in mouse embryonic carcinoma cells; type: cell-based
[2] = test system: MLL1-dependent Hox genes (e.g. Hoxc8 and Hoxa9); assay: Expression of MLL1-dependent Hox genes in HEK293T cells; type: cell-based; conditions: 20 micrograms per milliliter, 24 hours
From the text: In another embodiment, an inhibitor peptide with a cell penetration sequence is used to treat MLL1-associated leukemia. […] The addition of the inhibitor peptides disclosed herein can help control the degree of upregulation and thereby serve as a treatment for leukemia. Experiments have shown the degree of expression of MLL1-dependent Hox genes (e.g. Hoxc8 and Hoxa9) are decreased in the presence of inhibitor peptide SEQ ID NO. 34 in HEK293T cells treated with 20 micrograms per milliliter of the inhibitor peptide for 24 hours.

[3] = test system: H3K4 trimethylation / H3K27 trimethylation of H3; assay: Western blot of H3K4 trimethylation to H3K27 trimethylation ratio in HEK293T cells; type: cell-based; conditions: 20 micrograms per milliliter, 24 hours, normalized to total histone H3
Description: HEK293T cells were treated with 20 micrograms per milliliter of the inhibitor peptide (SEQ ID NO. 34) for 24 hours and immune-blotted using antibodies specific for H3K4 trimethylation, H3K27 trimethylation, and histone H3 (to provide for normalization). Western blots were quantified based on band intensity using image analysis software and normalized as a function of total histone H3. Tubulin was used as a loading control and its level remained constant between the two samples.

[4] = target: T1, WDR5 (Homo sapiens, UniProt P61964); assay: Binding of N-acetylated three residue peptide (method not given); conditions: acetylated on the N-terminus
T1 construct: pMCGS7 plasmids encoding full-length WDR5 as N-terminal His6 fusions were obtained; His6 (N); made in house; host or cells: Escherichia coli (Rosetta II, Novagen)

Substance	localization of fluorescent signature ([1]; mouse embryonic carcinoma cells)	effect on metaphase cells and nuclear shape ([1]; within 48 hours of treatment)	degree of expression of MLL1-dependent Hox genes (Hoxc8 and Hoxa9) [2]	ratio of H3K4 trimethylation to H3K27 trimethylation [3]	binding of three residue peptide [4]
Ac-VNPTGCARSEPK-Ahx-K(FTIC)-GRKKRRQRRRAP-CONH2 [SEQ ID NO. 34]	rapidly localized to eurchromatic regions of mouse embryonic carcinoma cell nuclei	metaphase cells are absent and many cell nuclei have adopted altered shapes	decreased	lowering of the ratio of H3K4 to H3K27	–
acART (Ac-Ala-Arg-Thr) [three residue peptide (ARX2)]	–	–	–	–	capable of binding
